Measurements: ChEMBL document CHEMBL5465560, “Selectivity Literature for EUbOPEN Chemogenomic Library” (2024)

Legend:
[1] = target: Bromodomain-containing protein 2 (Homo sapiens) (UniProt P25440); experiment: Selectivity interaction (Human bromodomain panel (DSF assay)) EUB0000233b BRD2
[2] = target: T1, Serine/threonine-protein kinase LATS2 (Homo sapiens) (UniProt Q9NRM7); details: at 10 µM
T1 sequence (whole entry): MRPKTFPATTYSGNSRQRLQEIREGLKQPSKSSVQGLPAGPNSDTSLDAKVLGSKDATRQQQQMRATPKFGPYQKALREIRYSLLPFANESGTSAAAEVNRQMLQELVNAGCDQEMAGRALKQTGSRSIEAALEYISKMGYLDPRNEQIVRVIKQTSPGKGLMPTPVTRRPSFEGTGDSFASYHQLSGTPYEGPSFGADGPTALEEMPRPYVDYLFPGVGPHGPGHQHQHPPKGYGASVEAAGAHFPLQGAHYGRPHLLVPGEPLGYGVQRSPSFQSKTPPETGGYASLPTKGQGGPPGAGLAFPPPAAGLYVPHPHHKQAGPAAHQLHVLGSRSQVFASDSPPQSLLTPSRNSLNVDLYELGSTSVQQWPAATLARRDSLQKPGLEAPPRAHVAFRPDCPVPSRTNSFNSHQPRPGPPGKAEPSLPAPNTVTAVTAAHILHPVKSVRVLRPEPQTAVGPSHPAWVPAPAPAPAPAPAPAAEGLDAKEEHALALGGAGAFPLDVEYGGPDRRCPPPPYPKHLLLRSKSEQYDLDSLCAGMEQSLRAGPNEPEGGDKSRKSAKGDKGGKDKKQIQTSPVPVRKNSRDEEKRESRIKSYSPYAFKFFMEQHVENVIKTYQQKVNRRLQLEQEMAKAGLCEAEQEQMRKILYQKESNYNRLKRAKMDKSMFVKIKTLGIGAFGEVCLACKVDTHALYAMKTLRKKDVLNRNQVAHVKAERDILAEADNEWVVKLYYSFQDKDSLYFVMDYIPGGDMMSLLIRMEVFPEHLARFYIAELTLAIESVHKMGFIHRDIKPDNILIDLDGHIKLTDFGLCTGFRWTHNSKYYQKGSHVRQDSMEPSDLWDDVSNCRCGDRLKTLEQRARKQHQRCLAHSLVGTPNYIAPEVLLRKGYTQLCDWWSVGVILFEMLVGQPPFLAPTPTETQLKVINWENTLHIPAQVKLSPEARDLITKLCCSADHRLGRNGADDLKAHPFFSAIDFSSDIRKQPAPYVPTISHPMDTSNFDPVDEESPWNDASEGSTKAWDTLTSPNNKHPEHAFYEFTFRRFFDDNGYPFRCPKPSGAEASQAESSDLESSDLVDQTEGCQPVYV

[3] = target: Phosphatidylinositol 4,5-bisphosphate 3-kinase catalytic subunit beta isoform (Homo sapiens) (UniProt P42338); experiment: Selectivity interaction (KinomeScan (DiscoverX)) EUB0000092b PIK3CB; details: at 10 µM
Chain of Phosphatidylinositol 4,5-bisphosphate 3-kinase catalytic subunit beta isoform (Homo sapiens) (P42338 whole entry, looked up, canonical isoform): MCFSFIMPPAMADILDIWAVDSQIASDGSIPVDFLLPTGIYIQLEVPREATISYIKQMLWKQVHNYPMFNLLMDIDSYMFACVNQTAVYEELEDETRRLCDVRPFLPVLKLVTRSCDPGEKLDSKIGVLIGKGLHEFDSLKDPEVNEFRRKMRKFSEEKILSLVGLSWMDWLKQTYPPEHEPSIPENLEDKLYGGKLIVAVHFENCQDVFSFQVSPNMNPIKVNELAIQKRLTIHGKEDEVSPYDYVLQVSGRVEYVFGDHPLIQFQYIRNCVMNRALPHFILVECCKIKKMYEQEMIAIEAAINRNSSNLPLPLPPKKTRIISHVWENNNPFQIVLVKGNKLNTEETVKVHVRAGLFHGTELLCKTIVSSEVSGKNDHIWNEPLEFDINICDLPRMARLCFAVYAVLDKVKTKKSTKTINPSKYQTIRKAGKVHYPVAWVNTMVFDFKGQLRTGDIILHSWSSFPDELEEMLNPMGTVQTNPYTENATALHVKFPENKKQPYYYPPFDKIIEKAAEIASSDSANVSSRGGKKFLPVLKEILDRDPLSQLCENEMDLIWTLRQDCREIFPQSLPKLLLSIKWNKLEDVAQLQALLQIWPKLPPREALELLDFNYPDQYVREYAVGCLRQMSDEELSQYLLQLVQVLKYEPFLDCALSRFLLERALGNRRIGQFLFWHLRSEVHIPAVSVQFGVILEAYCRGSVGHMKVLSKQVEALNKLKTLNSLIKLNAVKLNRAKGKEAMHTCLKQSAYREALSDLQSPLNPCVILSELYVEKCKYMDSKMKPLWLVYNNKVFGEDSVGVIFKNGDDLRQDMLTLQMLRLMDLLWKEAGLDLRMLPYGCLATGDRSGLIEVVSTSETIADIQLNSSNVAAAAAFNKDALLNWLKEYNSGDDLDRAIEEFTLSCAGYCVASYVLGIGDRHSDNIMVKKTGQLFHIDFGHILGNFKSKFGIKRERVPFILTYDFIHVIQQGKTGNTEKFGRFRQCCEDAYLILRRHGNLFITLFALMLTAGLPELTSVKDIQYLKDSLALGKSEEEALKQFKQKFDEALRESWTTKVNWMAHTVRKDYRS

[4] = target: T2, Ephrin type-A receptor 1 (Homo sapiens) (UniProt P21709); experiment: Selectivity interaction (KinomeScan (DiscoverX)) EUB0000618a EPHA1; details: at 10 µM
T2 sequence (whole entry): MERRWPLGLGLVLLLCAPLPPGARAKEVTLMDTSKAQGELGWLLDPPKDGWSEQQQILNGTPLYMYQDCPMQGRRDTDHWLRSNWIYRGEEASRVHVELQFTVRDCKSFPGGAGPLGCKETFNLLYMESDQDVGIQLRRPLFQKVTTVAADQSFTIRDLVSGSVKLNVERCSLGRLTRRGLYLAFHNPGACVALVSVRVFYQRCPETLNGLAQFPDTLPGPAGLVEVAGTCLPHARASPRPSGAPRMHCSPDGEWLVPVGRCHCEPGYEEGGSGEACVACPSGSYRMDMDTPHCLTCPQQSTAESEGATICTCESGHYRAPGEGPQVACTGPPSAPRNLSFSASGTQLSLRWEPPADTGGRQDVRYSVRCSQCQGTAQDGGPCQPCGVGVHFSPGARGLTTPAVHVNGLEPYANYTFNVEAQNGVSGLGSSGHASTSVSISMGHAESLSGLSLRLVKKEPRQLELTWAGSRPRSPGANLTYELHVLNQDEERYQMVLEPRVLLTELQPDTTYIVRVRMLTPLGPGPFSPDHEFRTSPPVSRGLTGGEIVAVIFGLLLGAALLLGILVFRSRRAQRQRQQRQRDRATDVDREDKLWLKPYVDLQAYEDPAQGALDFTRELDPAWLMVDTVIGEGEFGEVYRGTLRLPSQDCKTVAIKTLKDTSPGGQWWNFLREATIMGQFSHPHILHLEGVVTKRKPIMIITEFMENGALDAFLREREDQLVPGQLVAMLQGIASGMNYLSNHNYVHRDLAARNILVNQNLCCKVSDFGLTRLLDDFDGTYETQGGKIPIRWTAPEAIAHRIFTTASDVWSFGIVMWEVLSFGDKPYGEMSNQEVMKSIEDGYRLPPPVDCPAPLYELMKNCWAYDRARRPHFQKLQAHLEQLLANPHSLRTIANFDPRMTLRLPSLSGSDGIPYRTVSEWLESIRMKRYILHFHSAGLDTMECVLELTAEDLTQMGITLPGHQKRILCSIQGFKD

Chain of Bromodomain-containing protein 2 (Homo sapiens) (P25440 whole entry, looked up): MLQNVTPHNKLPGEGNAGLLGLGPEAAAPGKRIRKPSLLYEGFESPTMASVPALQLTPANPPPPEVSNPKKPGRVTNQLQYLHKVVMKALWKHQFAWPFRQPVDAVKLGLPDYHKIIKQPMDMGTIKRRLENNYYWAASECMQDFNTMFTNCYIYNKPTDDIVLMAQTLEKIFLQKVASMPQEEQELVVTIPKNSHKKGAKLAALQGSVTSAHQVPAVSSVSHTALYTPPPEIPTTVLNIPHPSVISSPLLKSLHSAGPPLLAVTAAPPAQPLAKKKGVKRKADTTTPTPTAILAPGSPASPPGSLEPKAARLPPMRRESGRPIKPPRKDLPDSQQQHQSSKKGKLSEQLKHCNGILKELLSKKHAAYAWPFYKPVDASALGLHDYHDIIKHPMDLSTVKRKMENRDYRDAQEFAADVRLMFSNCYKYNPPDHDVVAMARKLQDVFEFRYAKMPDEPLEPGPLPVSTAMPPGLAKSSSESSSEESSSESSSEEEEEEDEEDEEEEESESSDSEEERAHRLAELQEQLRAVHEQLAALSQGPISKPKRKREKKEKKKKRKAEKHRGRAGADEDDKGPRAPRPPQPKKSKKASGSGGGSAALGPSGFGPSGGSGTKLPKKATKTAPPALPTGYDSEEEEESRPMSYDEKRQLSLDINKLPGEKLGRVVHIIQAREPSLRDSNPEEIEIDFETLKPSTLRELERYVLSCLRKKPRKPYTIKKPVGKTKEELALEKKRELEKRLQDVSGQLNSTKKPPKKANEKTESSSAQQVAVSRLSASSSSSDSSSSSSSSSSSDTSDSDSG

With `CN(C)CCCOc1ccc(-c2cc(NCCCn3cccn3)nc(S(C)(=O)=O)n2)cc1` the dTM [1] was < 2 K.
Molecule `COCC(=O)NC/C=C/c1ccc2ncnc(Nc3ccc(Oc4ccc(C)nc4)c(C)c3)c2c1` [CP-724714] has a % of control [2] of 100%.
`CCC(=O)N1CCN(c2ccc(-n3c(=O)ccc4cnc5ccc(-c6cnc7ccccc7c6)cc5c43)cc2C(F)(F)F)CC1` was tested, and the % of control [3] was 65%.
For `O[C@H]1CC[C@H](Nc2ncc3nc(Nc4c(F)cc(F)cc4F)n([C@H]4CCOC4)c3n2)CC1`, the % of control [4] was 100%.
